Results published in patent US9353082B2, “Pharmaceutical compounds” (BIAL—PORTELA & CA, S.A., priority 2008, dated 2016).

Columns and labels:
FAAH [1] = target: T1, FAAH (Rattus norvegicus, UniProt P97612); experiment: In vitro FAAH activity in rat brain membranes, 3H-AEA substrate, % of control; type: biochemical, Wistar rats; settings: low value = strong inhibitor; for In Vitro FAAH activity, 100 nM: 100 nM test compound; for In Vitro FAAH activity, 10 uM: 10 uM test compound
T1 construct: Frozen brains (without cerebellum) from Wistar rats were used; from tissue; host or cells: Wistar rat brain (without cerebellum), washed membrane pellets
T1 sequence (P97612 1-579): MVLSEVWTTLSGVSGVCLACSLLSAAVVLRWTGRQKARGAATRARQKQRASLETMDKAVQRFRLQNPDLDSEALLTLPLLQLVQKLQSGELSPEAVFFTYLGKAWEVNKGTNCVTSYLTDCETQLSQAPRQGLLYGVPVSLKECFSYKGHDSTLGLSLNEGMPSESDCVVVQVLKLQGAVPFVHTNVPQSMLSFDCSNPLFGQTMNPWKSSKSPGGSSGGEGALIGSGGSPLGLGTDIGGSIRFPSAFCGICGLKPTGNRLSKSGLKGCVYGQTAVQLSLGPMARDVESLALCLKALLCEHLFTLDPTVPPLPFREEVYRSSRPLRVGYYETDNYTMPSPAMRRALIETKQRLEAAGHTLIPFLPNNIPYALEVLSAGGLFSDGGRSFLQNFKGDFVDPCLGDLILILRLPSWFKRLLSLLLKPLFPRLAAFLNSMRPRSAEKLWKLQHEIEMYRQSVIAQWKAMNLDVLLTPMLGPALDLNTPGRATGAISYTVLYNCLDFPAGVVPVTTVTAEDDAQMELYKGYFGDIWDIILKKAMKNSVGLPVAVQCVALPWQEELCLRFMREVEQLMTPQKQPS
Outline: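 Wistar rat brain membranes (5 μg protein) preincubated 15 min at 37 °C with compound at 10 μM or 0.1 μM (0.1% DMSO), then 2 μM AEA including 3H-AEA with 0.1% BSA, Tris pH 7.6, 10 min. 3H-ethanolamine counted after charcoal stop; % of no-compound control after blank subtraction.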

FAAH [2] = target: T2, FAAH (Mus musculus, UniProt O08914); experiment: In vivo FAAH inhibition after oral dosing, remaining activity in liver homogenate (LVh, peripheral tissue); design: species or system NMRI mice; settings: liver homogenate; for In Vivo LVh 3 mg · kg · 8 h (remaining FAAH activity): 3 mg/kg oral, low value = strong inhibitor
T2 construct: A fragment of liver, left lung lobe and brain without cerebellum were removed; from tissue; host or cells: male NMRI mice; brain (without cerebellum) and liver homogenates
T2 sequence (O08914 1-579): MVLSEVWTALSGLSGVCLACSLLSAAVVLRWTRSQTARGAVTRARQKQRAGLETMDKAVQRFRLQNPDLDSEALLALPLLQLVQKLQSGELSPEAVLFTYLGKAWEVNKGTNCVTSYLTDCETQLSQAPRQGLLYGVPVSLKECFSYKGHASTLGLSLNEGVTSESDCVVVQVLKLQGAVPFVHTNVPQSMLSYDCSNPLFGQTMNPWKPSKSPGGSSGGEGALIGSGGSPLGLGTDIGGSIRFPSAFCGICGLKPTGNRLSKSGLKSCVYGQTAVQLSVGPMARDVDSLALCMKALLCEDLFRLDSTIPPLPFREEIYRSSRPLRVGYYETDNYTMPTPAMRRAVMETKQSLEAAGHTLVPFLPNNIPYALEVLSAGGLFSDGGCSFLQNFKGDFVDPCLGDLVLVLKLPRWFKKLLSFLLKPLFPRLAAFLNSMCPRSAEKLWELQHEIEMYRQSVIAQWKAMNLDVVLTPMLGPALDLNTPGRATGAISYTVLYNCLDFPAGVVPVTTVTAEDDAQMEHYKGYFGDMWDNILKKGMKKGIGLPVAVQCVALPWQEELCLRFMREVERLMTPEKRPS
Outline: (§1)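 Male NMRI mice, fasted overnight, got 30 or 3 mg/kg compound orally (0.5% CMC suspension or water) and were compared with vehicle controls. Brain (no cerebellum) and liver homogenates were incubated with 2 μM AEA plus 5 nM 3H-AEA at 37 °C, 10 min for brain and 7 min for liver. Remaining FAAH activity is % of vehicle after blank subtraction.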

FAAH [3] = target: T2, FAAH; experiment: In vivo FAAH inhibition after oral dosing, remaining activity in brain homogenate (BRh, central nervous tissue); design: species or system NMRI mice; settings: brain homogenate; for In Vivo BRh 3 mg · kg · 8 h (remaining FAAH activity): 3 mg/kg oral, low value = strong inhibitor
Outline: as §1

| SMILES | In Vitro FAAH activity, 100 nM (FAAH [1]) | In Vitro FAAH activity, 10 uM (FAAH [1]) | In Vivo LVh 30 mg/kg 1 h, remaining FAAH activity (FAAH [2]) | In Vivo BRh 30 mg/kg 1 h, remaining FAAH activity (FAAH [3]) | In Vivo LVh 3 mg · kg · 8 h (remaining FAAH activity) (FAAH [2]) | In Vivo BRh 3 mg · kg · 8 h (remaining FAAH activity) (FAAH [3]) |
| --- | --- | --- | --- | --- | --- | --- |
| CN(C(=O)n1cnc(-c2ccccc2)c1)c1ccccc1 [Compound 4, N-methyl-N,4-diphenyl-1H-imidazole-1-carboxamide] | 83.6 % of control | 0.1 % of control | 10.6 % of control | 14.3 % of control | – | – |
| CN(C(=O)n1cnc(-c2ccc3ccccc3c2)c1)c1ccccc1 [Compound 14, N-methyl-4-(naphthalen-2-yl)-N-phenyl-1H-imidazole-1-carboxamide] | 68.3 % of control | 0 % of control | 77.3 % of control | 96.7 % of control | – | – |
| O=C(N1CCOCC1)n1nnc2ccccc21 [Compound 19, (1H-benzo[d][1,2,3]triazol-1-yl)(morpholino)methanone] | 3.1 % of control | 0.1 % of control | 41.1 % of control | 46.6 % of control | – | – |
| CN(C(=O)n1cnc(-c2ccc(F)cc2)c1)c1ccccc1 [Compound 29, 4-(4-fluorophenyl)-N-methyl-N-phenyl-1H-imidazole-1-carboxamide] | 52.5 % of control | 0 % of control | 17.2 % of control | 10.7 % of control | – | – |
| CN(C(=O)n1nnc2ccc(Cl)cc21)c1ccccc1 [Compound 32, 6-chloro-N-methyl-N-phenyl-1H-benzo[d][1,2,3]triazole-1-carboxamide] | 0.1 % of control | 0 % of control | 64.9 % of control | 85.9 % of control | – | – |
| CN(C(=O)n1cnc(-c2ccc(O)c([N+](=O)[O-])c2)c1)C1CCOCC1 [Compound no. 494, 4-(4-hydroxy-3-nitrophenyl)-N-methyl-N-(tetrahydro-2H-pyran-4-yl)-1H-imidazole-1-carboxamide] | – | – | – | – | 22.9 % of control | 48.9 % of control |
| CN(C(=O)n1cnc(-c2ccc(O)c(F)c2)c1)C1CCOCC1 [Compound no. 495, 4-(3-fluoro-4-hydroxyphenyl)-N-methyl-N-(tetrahydro-2H-pyran-4-yl)-1H-imidazole-1-carboxamide] | – | – | – | – | 2.3 % of control | 2.1 % of control |
| CCCN1CCC(N(C)C(=O)n2cnc(-c3cccc(OC)c3)c2)CC1 [Compound no. 498, 4-(3-methoxyphenyl)-N-methyl-N-(1-propylpiperidin-4-yl)-1H-imidazole-1-carboxamide] | – | – | – | – | 12.6 % of control | 21.4 % of control |
| CN(C(=O)n1cnc(-c2ccc(O)c(C(N)=O)c2)c1)C1CCCCC1 [Compound no. 499, 4-(3-carbamoyl-4-hydroxyphenyl)-N-cyclohexyl-N-methyl-1H-imidazole-1-carboxamide] | – | – | – | – | 44.1 % of control | 120.6 % of control |
| CN(C(=O)n1cnc(-c2ccc(F)c(O)c2)c1)C1CCOCC1 [Compound no. 500, 4-(4-fluoro-3-hydroxyphenyl)-N-methyl-N-(tetrahydro-2H-pyran-4-yl)-1H-imidazole-1-carboxamide] | – | – | – | – | 21.8 % of control | 75.1 % of control |
| COc1ccc(-c2cn(C(=O)N(C)C3CCNCC3)cn2)cc1 [Compound no. 501, 4-(4-methoxyphenyl)-N-methyl-N-(piperidin-4-yl)-1H-imidazole-1-carboxamide] | – | – | – | – | 67.4 % of control | 108.5 % of control |
| CCN1CCC(N(C)C(=O)n2cnc(-c3cccc(OC)c3)c2)CC1 [Compound no. 502, N-(1-ethylpiperidin-4-yl)-4-(3-methoxyphenyl)-N-methyl-1H-imidazole-1-carboxamide] | – | – | – | – | 11.5 % of control | 50.2 % of control |
| CCN1CCC(N(C)C(=O)n2cnc(-c3ccc(OC)c(F)c3)c2)CC1 [Compound no. 503, N-(1-ethylpiperidin-4-yl)-4-(3-fluoro-4-methoxyphenyl)-N-methyl-1H-imidazole-1-carboxamide] | – | – | – | – | 25.1 % of control | 78.8 % of control |
| CN(C(=O)n1cnc(-c2ccccc2)c1)C1CCNCC1.Cl [Compound no. 504, N-methyl-4-phenyl-N-(piperidin-4-yl)-1H-imidazole-1-carboxamide hydrochloride] | – | – | – | – | 51.2 % of control | 112.5 % of control |
| COc1ccc(-c2cn(C(=O)N(C)C3CCCCC3)cn2)cc1/C(N)=N\O [Compound no. 507, (E)—N-cyclohexyl-4-(3-(N′-hydroxycarbamimidoyl)-4-methoxyphenyl)-N-methyl-1H-imidazole-1-carboxamide] | – | – | – | – | 34 % of control | 101.7 % of control |
| CCN1CCC(N(C)C(=O)n2cnc(-c3cccc([N+](=O)[O-])c3)c2)CC1 [Compound no. 509, N-(1-ethylpiperidin-4-yl)-N-methyl-4-(3-nitrophenyl)-1H-imidazole-1-carboxamide] | – | – | – | – | 17.2 % of control | 78.3 % of control |
| CN(C(=O)n1cnc(-c2ccc(O)c(C(N)=O)c2)c1)C1CCOCC1 [Compound no. 513, 4-(3-carbamoyl-4-hydroxyphenyl)-N-methyl-N-(tetrahydro-2H-pyran-4-yl)-1H-imidazole-1-carboxamide] | – | – | – | – | 14.4 % of control | 90.3 % of control |
| CCCN1CCC(N(C)C(=O)n2cnc(-c3ccc[n+]([O-])c3)c2)CC1 [Compound no. 519, 3-(1-(methyl(1-propylpiperidin-4-yl)carbamoyl)-1H-imidazol-4-yl)pyridine 1-oxide] | – | – | – | – | 4.4 % of control | 82 % of control |
| CN(C(=O)n1cnc(-c2cccnc2)c1)C1CCN(S(C)(=O)=O)CC1 [Compound no. 533, N-methyl-N-(1-(methylsulfonyl)piperidin-4-yl)-4-(pyridin-3-yl)-1H-imidazole-1-carboxamide] | – | – | – | – | 0.2 % of control | 12 % of control |
| CCN1CCC(N(C)C(=O)n2cnc(-c3ccc(O)c(F)c3)c2)CC1 [Compound no. 536, N-(1-ethylpiperidin-4-yl)-4-(3-fluoro-4-hydroxyphenyl)-N-methyl-1H-imidazole-1-carboxamide] | – | – | – | – | 18.3 % of control | 74.6 % of control |
| COc1ccc(-c2cn(C(=O)N(C)C3CCN(CCO)CC3)cn2)cc1F [Compound no. 540, 4-(3-fluoro-4-methoxyphenyl)-N-(1-(2-hydroxyethyl)piperidin-4-yl)-N-methyl-1H-imidazole-1-carboxamide] | – | – | – | – | 33.7 % of control | 89.7 % of control |
